{"source": "patent US10967047B2", "about": "“Mitochondrial antiviral-signaling (MAVS) polypeptides and detection and use thereof” (University of Vermont and State Agricultural College, priority 2016, dated 2021)", "key": {"MEFs": {"system": "MEFs", "assay": "IFN-I and IL-6 cytokine secretion by ELISA in MEF culture supernatants", "format": "cell-based, mouse", "description": "ELISA was used to measure cytokine concentration in supernatant from cultured MEFs and BMDCs, and in sera of SLE patients and healthy control subjects. For assays, samples were centrifuged and IFN-β and IL-6 levels were measured in triplicate using murine or human ELISA kits according to the manufacturer's instructions. (PBL Biosciences). The fold change in IFN-I or IL-6 cells was calculated by directly comparing mock versus virus or chemical inducer of ROS."}, "MAVS": {"system": "MAVS", "assay": "MAVS oligomerization in purified MEF mitochondria, with or without SLE patient-derived MAVS oligomers", "parameters": "species or system mouse", "description": "MAVS antibody was covalently coupled to protein G magnetic beads (Life Technologies) using the bi-functional amine-reactive cross-linker disuccinimidyl suberate (DSS; Thermo Scientific). To avoid a sample contamination with proteins or protein complexes that nonspecifically bind to protein G, plasma samples were pre-incubated with protein G magnetic beads without the cross-linked MAVS antibody. SLE patient plasma were incubated for 6 hours, after which the magnetic beads were loaded onto a column in a magnetic field and extensively washed. After the beads were eluted, MAVS-oligomers were released from MAVS-antibody by way of increasing ionic strength buffer, lower pH and gel filtration. Functionally intact mitochondria from cultured cells were isolated as described earlier (S. Schmitt et al., (2013) Analytical biochemistry 443, 66-74). This method comprises a mechanical cell rupture, followed by a precipitation of mitochondria from cell lysates using magnetically labeled anti-TOM22 (Miltenyi Biotec) antibody. […] The reaction mixtures were centrifuged at 10,000×g for 10 min, and the precipitates then analyzed using SDD-AGE."}, "Drp1": {"system": "Drp1", "assay": "Phosphorylated Drp1 (Drp1 616p) at purified mitochondria, densitometry normalized to Cox IV", "format": "cell-based", "description": "To activate MAVS commercially available 5′-ppp-RNA was used at a concentration of 1 μg/ml, which activates RIG-I helicase. As an alternative GOx was used as previously described [Szeto, H. H., Br J Pharmacol, 2014. 171(8): p. 2029-50]. Mitochondria were purified by anti-Tom22 magnetic beads as previously described [Perl, A., et al., Int Rev Immunol, 2004. 23(3-4): p. 293-313]. Changes in the level of Drp1^616p at mitochondria were determined by densitometry, which was normalized to the level of Cox IV (FIG. 14A-B)."}}}
{"compound": "COC1=C(OC)C(=O)C(CCCCCCCCCC[P+](c2ccccc2)(c2ccccc2)c2ccccc2)=C(C)C1=O.CS(=O)(=O)[O-]", "note": "[MitoQ, [10-(4,5-Dimethoxy-2-methyl-3,6-dioxo-1,4-cyclohexadien-1-yl)decyl](triphenyl)phosphonium methanesulfonate]", "values": [{"measurement": "IFN-I secretion with MitoQ", "setting": "MEFs; MEF with or without MitoQ, GOx or SINV (FIG. 3D)", "value": "reduced IFN-I secretion"}, {"measurement": "MAVS oligomerization induced by SLE plasma MAVS oligomers in isolated mitochondria", "setting": "MAVS; mitochondria pretreated with MitoQ (FIG. 6C, lane 4)", "value": "significantly decreased"}, {"measurement": "level of phosphorylated Drp1 at mitochondria with MitoQ pre-treatment", "setting": "Drp1; same cells pre-treated with MitoQ, versus 5′-ppp-RNA or GOx alone (FIG. 14A-B)", "value": "higher levels"}]}
{"compound": "glucose oxidase [GOx]", "values": [{"measurement": "IFN-I secretion induced by the substance", "setting": "MEFs; MAVS-WT MEFs, not observed in MAVS-KO (FIG. 2E, 2J)", "value": "increased secretion"}, {"measurement": "IL-6 secretion induced by the substance", "setting": "MEFs; MAVS-WT MEFs, not observed in MAVS-KO (FIG. 2F, 2K)", "value": "increased secretion"}, {"measurement": "induction of MAVS oligomerization in purified mitochondria", "setting": "MAVS; GOx treatment, positive control (FIG. 6C, lane 2)", "value": "induced MAVS oligomerization"}, {"measurement": "level of phosphorylated Drp1 at mitochondria after MAVS activation", "setting": "Drp1; 5′-ppp-RNA 1 μg/ml or GOx (FIG. 14A-B)", "value": "lower levels of phosphorylated Drp1 at mitochondria"}]}
